The conditions of this data set: 101.33 kPa, Liquid, Capillary tube (Ostwald / Ubbelohde) method.

± gives the expanded uncertainty stated by the source.

Turning to `FC(F)(F)C(F)(F)C(F)(F)C(F)(F)C(F)(F)C(F)(F)C(F)(F)C(F)(F)Br` [1-bromoperfluorooctane], the kinematic viscosity by setting is: (298.15 K) 1.065e-06 ± 1e-08 m2/s; (303.15 K) 9.96e-07 ± 1e-08 m2/s; (308.15 K) 9.05e-07 ± 1.1e-08 m2/s; (313.15 K) 8.37e-07 ± 6e-09 m2/s; (318.15 K) 7.51e-07 ± 1.1e-08 m2/s.
The like results for `FC(F)(F)C(F)(F)C(F)(F)C(F)(F)C(F)(F)C(F)(F)C(F)(F)C(F)(F)C(F)(F)F` [eicosafluorononane] were, in that order, 1e-06 ± 1.2e-08 m2/s, 9.11e-07 ± 9e-09 m2/s, 8.33e-07 ± 8e-09 m2/s, 7.73e-07 ± 6e-09 m2/s and 7.14e-07 ± 7e-09 m2/s.
For `FC(F)(F)C(F)(F)C(F)(F)C(F)(F)C(F)(F)C(F)(F)C(F)(F)F` [hexadecafluoroheptane] the same measures were 5.43e-07 ± 4e-09 m2/s, 5.12e-07 ± 9e-09 m2/s, 4.82e-07 ± 1.1e-08 m2/s, 4.48e-07 ± 7e-09 m2/s and 4.34e-07 ± 7e-09 m2/s.
Consider `Fc1c(F)c(F)c(F)c(F)c1F` [hexafluorobenzene], for which the kinematic viscosity (298.15 K) came to 5.81e-07 ± 9e-09 m2/s; the kinematic viscosity (303.15 K) was found to be 5.35e-07 ± 1.1e-08 m2/s; the kinematic viscosity (308.15 K) came to 4.91e-07 ± 4e-09 m2/s; the kinematic viscosity (313.15 K) worked out at 4.5e-07 ± 7e-09 m2/s; the kinematic viscosity (318.15 K) was 4.23e-07 ± 9e-09 m2/s.
Regarding `FC(F)(F)C(F)(F)C(F)(F)C(F)(F)C(F)(F)C(F)(F)C(F)(F)C(F)(F)F` [octadecafluorooctane], the kinematic viscosity (298.15 K) was 7.11e-07 ± 7.4e-09 m2/s; the kinematic viscosity (303.15 K) was determined as 6.56e-07 ± 6.9e-09 m2/s; the kinematic viscosity (308.15 K) is 6.08e-07 ± 6.4e-09 m2/s; the kinematic viscosity (313.15 K) worked out at 5.65e-07 ± 6e-09 m2/s; the kinematic viscosity (318.15 K) came out at 5.27e-07 ± 5.6e-09 m2/s.
With `Fc1c(F)c(F)c(C(F)(F)F)c(F)c1F` [octafluorotoluene], the kinematic viscosity runs as follows: (298.15 K) 5.88e-07 ± 4e-09 m2/s; (303.15 K) 5.51e-07 ± 5e-09 m2/s; (308.15 K) 5.16e-07 ± 4e-09 m2/s; (313.15 K) 4.84e-07 ± 4e-09 m2/s; (318.15 K) 4.57e-07 ± 4e-09 m2/s.
For `FC(F)(F)C1(F)C(F)(F)C(F)(F)C(F)(F)C(F)(F)C1(F)F` [perfluoro(methylcyclohexane)] the same measures were 9.31e-07 ± 8e-09 m2/s, 8.43e-07 ± 9e-09 m2/s, 7.72e-07 ± 8e-09 m2/s, 7.22e-07 ± 9e-09 m2/s and 6.84e-07 ± 9e-09 m2/s.
Turning to `FC1(F)C(F)(F)C(F)(F)C2(F)C(F)(F)C(F)(F)C(F)(F)C(F)(F)C2(F)C1(F)F` (stereo not given) [perfluorodecalin], the kinematic viscosity runs as follows: (298.15 K) 2.803e-06 ± 1.6e-08 m2/s; (303.15 K) 2.448e-06 ± 1.4e-08 m2/s; (308.15 K) 2.159e-06 ± 1.4e-08 m2/s; (313.15 K) 1.917e-06 ± 1.1e-08 m2/s; (318.15 K) 1.709e-06 ± 1e-08 m2/s.
With `FC(F)(F)C(F)(F)C(F)(F)C(F)(F)C(F)(F)C(F)(F)F` [perfluorohexane], the kinematic viscosity (298.15 K) turned out to be 4.17e-07 ± 5e-09 m2/s; the kinematic viscosity (303.15 K) turned out to be 3.97e-07 ± 9e-09 m2/s; the kinematic viscosity (308.15 K) was 3.72e-07 ± 4e-09 m2/s; the kinematic viscosity (313.15 K) amounted to 3.57e-07 ± 5e-09 m2/s; the kinematic viscosity (318.15 K) worked out at 3.43e-07 ± 4e-09 m2/s.
